Measured values from US20070021348A1, “Novel treatment” (SmithKline Beecham Corp., & SmithKline Beecham, p.l.c., priority 1999, published 2007).
One block for each compound: values may come before it. Starred links: 1 amine or outer side, 2 acyl side, 3 side chain; linkers in the order of their positions; H or OH if unused. Non-standard residues stand in square brackets, D forms with d. Residues, ends and D or L forms follow the SMILES beside them. *: point of attachment. Hexanoyl(5S-NH,4S-OH,6-Ph) = O=C(CC[C@H](O)[C@H](Cc1ccccc1)N[*:1])[*:2]; X2 = C[C@H](C[C@H](O)[C@H](Cc1ccccc1)N[*:1])C(=O)[*:2]; X3 = Nc1ccc2c(c1)Oc1ccccc1C21OC(=O)c2cc(C(=O)*)ccc21; X1 = CC(C)C[C@H](N[*:1])[C@@H](O)CCC(=O)[*:2]

Legend:
Asp2-Fc enzyme [1] = biological target: T1, Asp2-Fc enzyme (Homo sapiens, UniProt P56817); assay: Asp 2 fluorescence polarisation competition assay against labelled ligand (III); assay type: binding
T1 construct: A cDNA fragment encoding Asp 2, amino acids 1 to 460; made in house; host or cells: CHO E1A (derived from DG-44), secreted, purified on Protein A
Experimental: Enzyme (at a fixed concentration of 25 nM), ligand (III) (at a fixed concentration of 2.5 nM) and test compound (10 uM down in twofold serial dilutions) were mixed in ×1 assay buffer (50 mM 50 mM sodium acetate, 20 mM sodium chloride, 5% glycerol, 0.1% CHAPS, pH 3.8) in a final assay volume of 10 ul and allowed to equilibrate for 3 hrs. The fluorescence polarisation was then read. The experiment was performed in duplicate.

Asp2-Fc enzyme [2] = biological target: T1, Asp2-Fc enzyme; assay: Fluorescence Resonance Energy Transfer (FRET) cleavage assay for Asp2; assay type: biochemical; conditions: 0.5 uM fluorescent Swedish variant APP beta-site peptide substrate, 25 nM enzyme, pH 3.8
Experimental: Preparation of Asp 2—Fc Fusion Protein (Asp 2(1-460)-Fc)
A cDNA fragment encoding Asp 2, amino acids 1 to 460 (EP855444 but with 130 Glu->Val), was subcloned to create a fusion protein with human immunoglobulin, residues 99-330 of IgGI, and cloned into the mammalian expression vector pCDN (Aiyar et al). The plasmid was linearized by digestion with Not 1 (15 ug DNA, 37′C, overnight), sterially precipitated and resuspended into 50 ul 1 X TE buffer (10 mM Tris, 1 mM EDTA, pH 7.5). […]
A peptide (X) based on the sequence of the Swedish variant APP beta-site sequence has been doubly labelled for use in a FRET assay. […] This would allow cleavage of the intervening peptide sequence by Asp2 to be monitored by energy transfer between the two fluorescent groups.
The fluorescent peptide substrate (0.5 uM) was incubated with Asp2-Fc enzyme, prepared as described above, in a buffer containing 50 mM sodium acetate, 20 mM sodium chloride, 5% glycerol, 0.1% CHAPS (3-[(3-Cholamidopropyl) dimethylammonio]-1-propane-sulphonate), pH 3.8). The assays were started by addition of enzyme (25 nM final concentration) and cleavage monitored on a fluorescent platereader with 485 nm excitation, 538 nm emission. […]
This assay was used to determine IC50 and Ki values for compounds of interest. […] Asp 2 Fluorescence Polarisation Assay.

Asp2-Fc enzyme [3] = biological target: T1, Asp2-Fc enzyme; assay: Asp 2 fluorescence polarisation assay, Kd of labelled ligand; conditions: ligand 1-100 nM, enzyme from 100 nM down in twofold dilutions, pH 4.0, 15 min equilibration, anisotropy; read-out: Kd for the tight binding interaction
Experimental: A competition assay has also been designed to identify compounds acting at the Asp2 active site. The hydroxyethylene inhibitor, (I), has been modified by addition of 5-, 6-rhodamine green to the free N-terminal amine of the compound to create labelled ligand (III). [drawing 4] The resulting compound was tested experimentally as follows to determine the Kd with Asp2-Fc enzyme, prepared as above.
A three dimensional analysis varying enzyme and compound (III) was performed. Ligand concentration range was 1, 3, 10, 30 and 100 nM. Enzyme concentration range was from 100 nM down in serial twofold dilutions (11 dilutions+no enzyme control). Ligand of appropriate concentration was prepared in 5% DMSO. The enzyme solutions were prepared in 2 times (×2) assay buffer (where ×1=50 mM sodium acetate, 20 mM sodium chloride, 5% glycerol, 0.1% CHAPS, pH 4.0). 5 ul of the enzyme solution (of varying concentration) was mixed with 5 ul of the ligand (of varying concentration) in a low volume 384 microtitre plate. The samples were allowed to equilibrate for 15 min before the fluorescence polarisation was read on an LJL Acquest platereader.
The Anisotropy values were plotted and the Kd for the tight binding interaction obtained.

- Ki (Asp2-Fc enzyme [1]; 25 nM enzyme, 2.5 nM ligand (III), pH 3.8, 3 hrs equilibration, duplicate): 67.5 nM
- displacement of the fluorescent ligand (III) (Asp2-Fc enzyme [1]; at the highest concentrations of test compound (10 uM down in twofold serial dilutions)): Complete displacement
Compound: CC(C)C[C@H](NC(=O)[C@H](C)NC(=O)[C@@H](NC(=O)[C@@H](N)CCC(=O)O)C(C)C)[C@@H](O)CCC(=O)N[C@@H](C)C(=O)N[C@@H](CCC(=O)O)C(=O)N[C@@H](Cc1ccccc1)C(=O)O [Compound (IV)] (H-EVA[X1]AEF-OH)

- Ki (Asp2-Fc enzyme [2]): 7.7 nM
Compound: CC(C)[C@H](NC(=O)[C@@H](N)CCC(=O)O)C(=O)N[C@@H](CC(N)=O)C(=O)N[C@@H](Cc1ccccc1)[C@@H](O)CCC(=O)N[C@@H](C)C(=O)N[C@@H](CCC(=O)O)C(=O)N[C@@H](Cc1ccccc1)C(=O)O [(I)] (H-EVN[Hexanoyl(5S-NH,4S-OH,6-Ph)]AEF-OH)

- Ki (Asp2-Fc enzyme [2]): 7.3 nM
Compound: CC(C)[C@H](NC(=O)[C@@H](N)CCC(=O)O)C(=O)N[C@@H](CC(N)=O)C(=O)N[C@@H](Cc1ccccc1)[C@@H](O)C[C@@H](C)C(=O)N[C@@H](C)C(=O)N[C@@H](CCC(=O)O)C(=O)N[C@@H](Cc1ccccc1)C(=O)O [(II)] (H-EVN[X2]AEF-OH)

- Kd (Asp2-Fc enzyme [3]): 1.22 nM
Compound: CC(C)[C@H](NC(=O)[C@H](CCC(=O)O)NC(=O)c1ccc2c(c1)C(=O)OC21c2ccccc2Oc2cc(N)ccc21)C(=O)N[C@@H](CC(N)=O)C(=O)N[C@@H](Cc1ccccc1)[C@@H](O)CCC(=O)N[C@@H](C)C(=O)N[C@@H](CCC(=O)O)C(=O)N[C@@H](Cc1ccccc1)C(=O)O (stereo partly drawn) [(III)] (X3-EVN[Hexanoyl(5S-NH,4S-OH,6-Ph)]AEF-OH)
